In PubChem BioAssay (NCI) one finds TGI and GI50 data, which are given here for ten molecules.

Structures are written as SMILES.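 Five compound concentrations were applied to cells in 96-well plates for 48 hours; endpoints were derived by simple linear interpolation of the resulting dose-response curve. The concentration for 50% growth inhibition is given as GI50. TGI marks complete inhibition of growth.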

Among the test systems are LOX IMVI melanoma; EKVX NSCLC; ACHN renal; HL-60(TB) leukemia; UACC-62 melanoma; OVCAR-3 ovarian; M14 melanoma; SK-MEL-28 melanoma; OVCAR-5 ovarian; NCI-H522 lung.
Holding throughout (test): NCI-60 cell line screen, 48 h

Regarding `O=C(NNc1ccc([N+](=O)[O-])cc1)C1OC(CO)C(O)C1O` (stereo not given), the TGI in the assay with LOX IMVI melanoma, in the assay with EKVX NSCLC, in the assay with ACHN renal, with HL-60(TB) leukemia, in the assay on UACC-62 melanoma and with OVCAR-3 ovarian was greater than 100 µM each time. Also, the TGI with M14 melanoma, in the assay on SK-MEL-28 melanoma and with OVCAR-5 ovarian was greater than 100 µM in each case.
Take `N#CC(C#N)=C/C=C/c1cccc([N+](=O)[O-])c1`: the GI50 was 0.913 µM in the assay with LOX IMVI melanoma; 3.47 µM in the assay with EKVX NSCLC; 0.927 µM in the assay on ACHN renal; 0.345 µM with HL-60(TB) leukemia; 1.3 µM in the assay with UACC-62 melanoma; 0.533 µM with OVCAR-3 ovarian. For the same molecule, the GI50 with M14 melanoma was 0.658 µM; with SK-MEL-28 melanoma, 1.38 µM; with OVCAR-5 ovarian, 2.24 µM. For the same molecule, the TGI came to 2.37 µM in the assay with LOX IMVI melanoma; 27.8 µM in the assay with EKVX NSCLC; 2.22 µM with ACHN renal; 5.38 µM in the assay with HL-60(TB) leukemia; 2.96 µM in the assay with UACC-62 melanoma; 4.36 µM with OVCAR-3 ovarian. Besides, the TGI in the assay on M14 melanoma was 2.18 µM; in the assay with SK-MEL-28 melanoma, 3.23 µM; in the assay on OVCAR-5 ovarian, 7.96 µM.
Take `OCC(O)C(OC1OC(CO)C(O)C(O)C1O)c1nn(-c2ccc(F)cc2)c2nc3cc(Cl)c(Cl)cc3cc12` (stereo not given): the TGI in the assay with LOX IMVI melanoma, in the assay on EKVX NSCLC, in the assay on ACHN renal, in the assay on NCI-H522 lung, in the assay with UACC-62 melanoma and in the assay with OVCAR-3 ovarian was greater than 100 µM in each case. In addition, the TGI with M14 melanoma, with SK-MEL-28 melanoma and in the assay with OVCAR-5 ovarian was greater than 100 µM in each case.
With `NC(=O)c1ccc(NC(=O)c2oc3ccccc3c2-c2cnn(-c3ccccc3)c2)cc1`, the GI50 in the assay on LOX IMVI melanoma was greater than 100 µM; with ACHN renal, 5.03 µM; in the assay with HL-60(TB) leukemia, greater than 100 µM; with NCI-H522 lung it was greater than 100 µM; with M14 melanoma, greater than 100 µM; with SK-MEL-28 melanoma it was greater than 100 µM. In addition, the GI50 in the assay on OVCAR-5 ovarian was greater than 100 µM. Besides, the TGI with LOX IMVI melanoma, with ACHN renal, in the assay with HL-60(TB) leukemia, in the assay on NCI-H522 lung, in the assay on M14 melanoma and in the assay on SK-MEL-28 melanoma was greater than 100 µM in each case. The molecule further showed a TGI with OVCAR-5 ovarian greater than 100 µM.
With `Fc1ccc(-c2c(-c3ccncc3)n(CCN3CCOCC3)c3cccnc23)cc1`, the GI50 with LOX IMVI melanoma, in the assay with ACHN renal, in the assay on HL-60(TB) leukemia, in the assay on NCI-H522 lung, in the assay on UACC-62 melanoma and in the assay on OVCAR-3 ovarian was greater than 25 µM in each case. For the same molecule, the GI50 in the assay with M14 melanoma, in the assay with SK-MEL-28 melanoma and with OVCAR-5 ovarian was greater than 25 µM each time. Moreover, the TGI in the assay with LOX IMVI melanoma, in the assay on ACHN renal, in the assay with HL-60(TB) leukemia, in the assay with NCI-H522 lung, in the assay on UACC-62 melanoma and in the assay with OVCAR-3 ovarian was greater than 25 µM in each case. Also, the TGI in the assay on M14 melanoma, in the assay on SK-MEL-28 melanoma and in the assay with OVCAR-5 ovarian was greater than 25 µM in each case.
In the case of `NC(=O)c1ccc(-c2c3ccccc3cc3c2ccc2ccccc23)cc1`, the GI50 in the assay with LOX IMVI melanoma was 4.86 µM; in the assay on EKVX NSCLC it was 9.35 µM; with ACHN renal, 6.62 µM; in the assay on HL-60(TB) leukemia it was 2.14 µM; in the assay with UACC-62 melanoma it was 4.32 µM; with OVCAR-3 ovarian, 1.94 µM. Besides, the GI50 in the assay on M14 melanoma is 2.04 µM; with SK-MEL-28 melanoma it was 4.39 µM; with OVCAR-5 ovarian, 14.3 µM. Besides, the TGI is 32.6 µM in the assay with LOX IMVI melanoma; greater than 100 µM in the assay on EKVX NSCLC; 62 µM with ACHN renal; greater than 100 µM in the assay on HL-60(TB) leukemia; 40.2 µM in the assay with UACC-62 melanoma; 6.98 µM in the assay with OVCAR-3 ovarian. Moreover, the figures for the TGI in the assay with M14 melanoma, in the assay with SK-MEL-28 melanoma and in the assay with OVCAR-5 ovarian were 20.1 µM, 36 µM and greater than 100 µM, respectively.
`Cc1ccc(C)c2sc3cc(=O)ccc-3nc12`: the TGI is greater than 100 µM with EKVX NSCLC; greater than 100 µM in the assay with ACHN renal; 38.8 µM in the assay with HL-60(TB) leukemia; 67.6 µM in the assay with NCI-H522 lung; 33.6 µM in the assay with UACC-62 melanoma; greater than 100 µM with OVCAR-3 ovarian. Further, the figures for the TGI in the assay with M14 melanoma, in the assay on SK-MEL-28 melanoma and in the assay with OVCAR-5 ovarian were 42.7 µM, greater than 100 µM and 74.1 µM, respectively.
For `CN1C=CN(Cc2ccc(-c3ccccn3)nc2)[CH-]1.CN1C=CN(Cc2ccc(-c3ccccn3)nc2)[CH-]1.[Au+3]`, the GI50 in the assay with LOX IMVI melanoma was 2.89 µM; in the assay on ACHN renal, 14.6 µM; in the assay on HL-60(TB) leukemia, 1.22 µM; in the assay with NCI-H522 lung it was 0.104 µM; with UACC-62 melanoma, 1.4 µM; in the assay with OVCAR-3 ovarian, 2.41 µM. Also, the GI50 in the assay on M14 melanoma was 2.82 µM; in the assay with SK-MEL-28 melanoma it was 2.47 µM; in the assay on OVCAR-5 ovarian, 5.84 µM. The TGI in the assay with LOX IMVI melanoma is 13.4 µM; in the assay with ACHN renal, greater than 100 µM; in the assay with HL-60(TB) leukemia, 6.84 µM; in the assay on NCI-H522 lung it was 0.494 µM; with UACC-62 melanoma, 6.67 µM; with OVCAR-3 ovarian, 13.8 µM. Moreover, the TGI with M14 melanoma is 20.6 µM; in the assay with SK-MEL-28 melanoma, 14.5 µM; with OVCAR-5 ovarian it was 27.3 µM.
As to `COc1ccc(/C=C/CO)cc1OC`, the TGI in the assay on EKVX NSCLC, in the assay on ACHN renal, in the assay with UACC-62 melanoma, in the assay on OVCAR-3 ovarian, in the assay with SK-MEL-28 melanoma and in the assay with OVCAR-5 ovarian was greater than 100 µM throughout.
For the molecule `C/C(=N\n1c(N)c(C#N)c(-c2ccc(Cl)cc2)c(C#N)c1=O)c1cccnc1`, the GI50 in the assay with LOX IMVI melanoma, with EKVX NSCLC, with ACHN renal, in the assay with UACC-62 melanoma, in the assay with OVCAR-3 ovarian and with M14 melanoma was greater than 100 µM each time. Besides, the GI50 in the assay with SK-MEL-28 melanoma and in the assay on OVCAR-5 ovarian was greater than 100 µM throughout. Also, the TGI in the assay on LOX IMVI melanoma, with EKVX NSCLC, in the assay with ACHN renal, in the assay on UACC-62 melanoma, in the assay with OVCAR-3 ovarian and in the assay on M14 melanoma was greater than 100 µM in each case. In addition, the TGI with SK-MEL-28 melanoma and in the assay with OVCAR-5 ovarian was greater than 100 µM each time.
